Assay results published in publication PMC10331583, “Control of fibrosis with enhanced safety via asymmetric inhibition of prolyl‐tRNA synthetase 1” (EMBO Molecular Medicine, 2023).
“And” between values parts separate entries of the source, which are not always exact repeats. Equal entries are not always repeated.

What was measured:
LX2 cells = experiment: Determination of collagen level using 3D culture (hydroxyproline); type: cell-based; settings: Homo sapiens, LX-2, read-out: IC50 for collagen level
Experimental: To screen HF derivatives, LX2 cells were resuspended with growth medium containing 20% Matrigel (BD Bioscience, 354234) and then seeded at 1 × 10^4 cells/well on a Lipidure‐coated U bottom 96‐well plate (NOF, LCU96). After 48 h, the cells were treated with TGF‐β1 (Sigma‐Aldrich, T7039) for 24 h to mimic fibrotic conditions and then additionally incubated in the presence of various concentrations of test compounds for 48 h. To determine the level of collagen, hydroxyproline levels were measured following the manufacturer's instructions (BioVision, K555‐100). Briefly, after the cells were incubated with HCl for 3 h at 120°C, the soluble supernatant was prepared using activated charcoal (Sigma‐Aldrich, 161551). The samples were dried for 3 h at 60°C and then, incubated with chloramine T mixture for 10 min and Ehrlich's reagent for 90 min at 60°C. The level of hydroxyproline was determined by measuring the absorbance at 540 nm.

[1] = parameters: method as in earlier work; settings: healthy adults; ref ANZCTR ACTRN12619001239156; ClinicalTrials.gov NCT04767815, NCT04888715, NCT04888728; cited from earlier work
[2] = Cytotoxicity assay in cells stably expressing PARS1 mutant; settings: human; for activity at 72 h, 3 µM: 3000 nM; for activity at 72 h, 30 µM: 30000 nM; for activity at 72 h, 100 µM: 100000 nM
[3] = system: WI‐26 VA4 cells stably expressing PARS1 FA/EA/RL mutant; experiment: as above; settings: WI-26 VA4 Flag-PARS1 FA/EA/RL
[4] = CellTiter‐Glo assay, screen of HF derivatives; type: cell-based; settings: human, NHLF cells
Experimental: After 24 h, the cells were incubated with various concentrations of compounds for 48 h. The level of ATP as a measure of cell viability was determined using a CellTiter‐Glo® luminescent cell viability assay kit (Promega, G7571) following the manufacturer's instructions.

C57BL/6 mice = experiment: Bleomycin‐induced lung fibrosis, preventive model; type: in vivo; settings: 3 weeks
Experimental: In a preventive model of bleomycin‐induced lung fibrosis, all experiments were conducted following the international guidelines on the ethical use of experimental animals and approved by the Institutional Animal Care and Use Committee of Aragen Bioscience (17‐0331‐M‐1). C57BL/6 mice (6–7‐week‐old, male, obtained from Simonsen Laboratories) were randomized into groups (n = 10 for each group) such that mean body weights were similar for the different groups. Oral administration of the compounds (vehicle, DWN12088, and pirfenidone) was started a day before oropharyngeal administration of 70 μl bleomycin (2 units/kg). DWN12088 (3, 10, 30 mg/kg) was treated once a day while 100 mg/kg pirfenidone was treated twice a day (200 mg/kg/day) for 3 weeks, and then the outcome was analyzed.

in vitro = settings: human, Cytotoxicity
[5] = system: WI‐26 VA4 cells stably expressing EV (empty vector); settings: human, 72 h
[6] = Cytotoxicity, % of control (single replicates, Experiment #1-#4), WI-26 VA4 Flag-PARS1 FA/EA/RL
[7] = Cytotoxicity, % of control, average, WI-26 VA4 Flag-PARS1 FA/EA/RL

What does the source list for O[C@H]1CCCN[C@@H]1CCCn1cnc2c(Cl)c(Cl)ccc21 [DWN12088]?
IC50 (LX2 cells): 0.0431 µM; safety in phase 1 studies [1]: validated its safety in phase 1 studies; CC50 at 72 h [2]: 11.8 µM; IC50 at 72 h [2]: 11.8 µM; activity at 72 h, 3 µM [2, 6]: 85.2%; activity at 72 h, 30 µM [2, 6]: 25.3%; activity at 72 h, 100 µM [2, 6]: 22.8%; activity at 72 h, 0.01 µM ([2]; Cytotoxicity, % of control, average, WI-26 VA4 Flag-PARS1 FA/EA/RL, 10 nM): 110%; activity at 72 h, 0.03 µM ([2]; Cytotoxicity, % of control, average, WI-26 VA4 Flag-PARS1 FA/EA/RL, 30 nM): 107%; activity at 72 h, 0.1 µM ([2]; Cytotoxicity, % of control, average, WI-26 VA4 Flag-PARS1 FA/EA/RL, 100 nM): 110%; activity at 72 h, 0.3 µM ([2]; Cytotoxicity, % of control, average, WI-26 VA4 Flag-PARS1 FA/EA/RL, 300 nM): 107%; activity at 72 h, 1 µM ([2]; Cytotoxicity, % of control, average, WI-26 VA4 Flag-PARS1 FA/EA/RL, 1000 nM): 111%; activity at 72 h, 3 µM [2, 7]: 81.7%; activity at 72 h, 10 µM ([2]; Cytotoxicity, % of control, average, WI-26 VA4 Flag-PARS1 FA/EA/RL, 10000 nM): 68.8%; activity at 72 h, 30 µM [2, 7]: 19.5%; activity at 72 h, 100 µM [2, 7]: 20.1%; activity at 72 h, 300 µM ([2]; Cytotoxicity, % of control, average, WI-26 VA4 Flag-PARS1 FA/EA/RL, 300000 nM): 1.1%; activity at 72 h, 1000 µM ([2]; Cytotoxicity, % of control, average, WI-26 VA4 Flag-PARS1 FA/EA/RL, 1000000 nM): 0%; Cytotoxicity, % of control (single replicates, Experiment #1-#4) ([3]; 10 nM, 0.01 µM): 127.65 % of control and 116.09 % of control and 111.66 % of control and 110.83 % of control and 101.75 % of control and 99.44 % of control and 110.49 % of control and 101.49 % of control; Cytotoxicity, % of control (single replicates, Experiment #1-#4) ([3]; 30 nM, 0.03 µM): 126.96 % of control and 104.11 % of control and 114.08 % of control and 105.16 % of control and 106.38 % of control and 115.03 % of control and 93.72 % of control and 92.87 % of control; Cytotoxicity, % of control (single replicates, Experiment #1-#4) ([3]; 100 nM, 0.1 µM): 127.60 % of control and 108.47 % of control and 113.70 % of control and 109.71 % of control and 111.06 % of control and 113.53 % of control and 98.60 % of control and 94.80 % of control; Cytotoxicity, % of control (single replicates, Experiment #1-#4) ([3]; 300 nM, 0.3 µM): 132.76 % of control and 113.23 % of control and 105.15 % of control and 116.43 % of control and 104.37 % of control and 100.43 % of control and 94.90 % of control and 90.64 % of control; Cytotoxicity, % of control (single replicates, Experiment #1-#4) ([3]; 1000 nM, 1 µM): 112.40 % of control and 100.20 % of control and 107.27 % of control and 121.00 % of control and 132.94 % of control and 130.17 % of control and 95.86 % of control and 86.64 % of control; Cytotoxicity, % of control (single replicates, Experiment #1-#4) ([3]; 3000 nM, 3 µM): 71.51 % of control and 74.54 % of control and 81.32 % of control and 80.03 % of control and 89.57 % of control and 88.20 % of control and 83.52 % of control; Cytotoxicity, % of control (single replicates, Experiment #1-#4) ([3]; 10000 nM, 10 µM): 63.68 % of control and 53.80 % of control and 76.80 % of control and 69.72 % of control and 64.84 % of control and 73.82 % of control and 81.37 % of control and 66.19 % of control; Cytotoxicity, % of control (single replicates, Experiment #1-#4) ([3]; 30000 nM, 30 µM): 25.76 % of control and 18.61 % of control and 17.42 % of control and 17.01 % of control and 19.68 % of control and 18.20 % of control and 14.25 % of control; Cytotoxicity, % of control (single replicates, Experiment #1-#4) ([3]; 100000 nM, 100 µM): 21.16 % of control and 22.59 % of control and 20.38 % of control and 17.48 % of control and 18.26 % of control and 18.73 % of control and 19.25 % of control; Cytotoxicity, % of control (single replicates, Experiment #1-#4) ([3]; 300000 nM, 300 µM): 1.23 % of control and 1.09 % of control and 1.22 % of control and 0.52 % of control and 1.28 % of control and 1.77 % of control and 1.38 % of control and 0.29 % of control; Cytotoxicity, % of control (single replicates, Experiment #1-#4) ([3]; 1000000 nM, 1000 µM): 0.10 % of control and -0.10 % of control and 0.29 % of control and -0.29 % of control and 0.16 % of control and -0.16 % of control and 0.22 % of control and -0.22 % of control; Cytotoxicity HillSlope (best-fit value) ([3]; log(inhibitor) vs. response, variable slope (four parameters)): -1.118; Cytotoxicity LogIC50 (best-fit value) ([3]; log(inhibitor) vs. response, variable slope (four parameters), concentration in nM): 4.071; CC50 at 48 h [4]: > 100 µM; fibrotic properties (modified Ashcroft score, lung weight, collagen content in BALF) (C57BL/6 mice; 10 mg/kg once a day): alleviated fibrotic properties; fibrotic properties (modified Ashcroft score, lung weight, collagen content in BALF) (C57BL/6 mice; 30 mg/kg once a day): alleviated fibrotic properties

For O=C(CC1NCCCC1O)Cn1cnc2cc(Br)c(Cl)cc2c1=O (stereo not drawn) [HF, Halofuginone, reference compound], which activity at 72 h, 0.1 µM (in vitro; % of control (single replicates, Experiment #1-#4)) is on record?
Its activity at 72 h, 0.1 µM is 34.2%.

And the activity at 72 h, 0.001 µM (in vitro; % of control, average)?
Its activity at 72 h, 0.001 µM is 101%.

And the activity at 72 h, 0.003 µM (in vitro; % of control, average)?
The activity at 72 h, 0.003 µM was 107%.

What about the activity at 72 h, 0.03 µM (in vitro; % of control, average) of the same molecule?
The activity at 72 h, 0.03 µM was 73.6%.

And the activity at 72 h, 0.1 µM (in vitro; % of control, average)?
The activity at 72 h, 0.1 µM was 42.5%.

And the activity at 72 h, 1 µM (in vitro; % of control, average)?
Its activity at 72 h, 1 µM is 19.4%.

And the “Cytotoxicity HillSlope (best-fit value)” value [5]?
Its value is -0.8001.

What about the “Cytotoxicity LogIC50 (best-fit value)” value [5] of the same molecule?
The value was 1.811.
